Like-named read-outs stand apart in the source and are kept apart here.
How the values were obtained:
Lung_H1703 = assay: Cell proliferation assay (ATPlite), H1703; format: cell-based; details: Homo sapiens, NCI-H1703; TABLE C; 72 hours, 0.5% fetal bovine serum, ATP content; read-out: IC50 grading, Lung_H1703
Protocol: (§1) A representative number of compounds were assayed against several different cell lines using the cell proliferation assay:
(§2) Cell Proliferation Assay:
(§3) Cancer cell lines were plated at 5,000 to 10,000 per well in 96-well flatted bottomed plates with various concentration of compounds. The cells were incubated with compounds for 72 hours in the presence of 0.5% of fetal bovine serum. Growth inhibition was accessed by adenosine triphosphate (ATP) content assay using Perkin Elmer ATPlite kit. ATPlite is an ATP monitoring system based on firefly luciferase. Briefly, 25 μl of mammalian cell lysis solution was added to 50 μl of phenol red-free culture medium per well to lyse the cells and stabilize the ATP. 25 μl of substrate solution was then added to the well and subsequently the luminescence was measured.

[1] = tested on: Prostate_PC3 (PC-3, prostate adenocarcinoma); assay: Cell proliferation assay (ATPlite), PC3; format: cell-based
Protocol: as §1, §2
as §3, with “The cells were incubated with compounds for 72 hours in the presence of 0.5% of fetal bovine serum.” left out

Lung_H358 = assay: Cell proliferation assay (ATPlite), H358; format: cell-based; details: Homo sapiens, NCI-H358; TABLE C; 72 hours, 0.5% fetal bovine serum, ATP content; read-out: IC50 grading, Lung_H358
Protocol: as §1, §2, §3

Lung_H460 = assay: Cell proliferation assay (ATPlite), H460; format: cell-based; details: Homo sapiens, NCI-H460; TABLE C; 72 hours, 0.5% fetal bovine serum, ATP content; read-out: IC50 grading, Lung_H460
Protocol: as §1, §2, §3

Pancreas_BxPC3 = assay: Cell proliferation assay (ATPlite), BxPC3; format: cell-based; details: Homo sapiens, BXPC-3; TABLE C; 72 hours, 0.5% fetal bovine serum, ATP content; read-out: IC50 grading, Pancreas_BxPC3
Protocol: as §1, §2, §3

Lung_H1975 = assay: Cell proliferation assay (ATPlite), H1975; format: cell-based; details: Homo sapiens, NCI-H1975; TABLE C; 72 hours, 0.5% fetal bovine serum, ATP content; read-out: IC50 grading, Lung_H1975
Protocol: as §1, §2, §3

Pancreas_Capan1 = assay: Cell proliferation assay (ATPlite), Capan1; format: cell-based; details: Homo sapiens, CAPAN-1; TABLE C; 72 hours, 0.5% fetal bovine serum, ATP content; read-out: IC50 grading, Pancreas_Capan1
Protocol: as §1, §2, §3

Lung_H2122 = assay: Cell proliferation assay (ATPlite), H2122; format: cell-based; details: Homo sapiens, NCI-H2122; TABLE C; 72 hours, 0.5% fetal bovine serum, ATP content; read-out: IC50 grading, Lung_H2122
Protocol: as §1, §2, §3

[2] = tested on: ER mRNA expression in human ER-negative breast cancer cell lines; details: Yang et al. Cancer Res., 2001; cited from earlier work
C-Raf = C-Raf (Homo sapiens, UniProt P04049, Y340D/Y341D); assay: Raf kinase assay (Upstate kit, MEK-1 substrate, dot blot), C-Raf; format: biochemical; details: TABLE 6-B (Section 6 compounds)
Chain of C-Raf (P04049 whole entry Y340D/Y341D): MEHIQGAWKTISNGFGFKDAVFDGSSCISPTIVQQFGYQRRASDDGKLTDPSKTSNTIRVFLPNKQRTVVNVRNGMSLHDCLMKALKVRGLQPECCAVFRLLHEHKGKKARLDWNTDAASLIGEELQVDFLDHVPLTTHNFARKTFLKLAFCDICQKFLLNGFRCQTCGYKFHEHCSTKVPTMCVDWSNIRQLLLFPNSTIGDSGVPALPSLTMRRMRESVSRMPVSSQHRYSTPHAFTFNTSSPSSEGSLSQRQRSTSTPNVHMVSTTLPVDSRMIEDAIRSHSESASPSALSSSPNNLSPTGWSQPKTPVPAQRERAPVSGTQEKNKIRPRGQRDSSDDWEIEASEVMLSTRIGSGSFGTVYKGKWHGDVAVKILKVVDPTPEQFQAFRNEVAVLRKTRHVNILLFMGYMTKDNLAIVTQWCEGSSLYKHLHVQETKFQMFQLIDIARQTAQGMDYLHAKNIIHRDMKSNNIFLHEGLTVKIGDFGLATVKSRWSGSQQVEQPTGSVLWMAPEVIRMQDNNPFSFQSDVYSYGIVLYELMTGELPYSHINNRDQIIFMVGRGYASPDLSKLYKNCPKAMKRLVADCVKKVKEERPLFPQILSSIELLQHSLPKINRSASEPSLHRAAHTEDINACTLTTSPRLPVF
Protocol: The Raf kinase assay was performed by following the protocol of Raf kinase assay kit (B-Raf, Upstate, catalog#17-359; C-Raf, Upstate, catalog#17-360) with modifications. Briefly, assay buffer, ATP, substrate and Raf kinase were mixed in a 96 well assay plate. The final kinase assay mixture contained 20 mM MOPS, pH7.2, 25 mM β-glycerol phosphate, 5 mM EGTA, 1 mM sodium orthovanadate, 1 mM DTT, 250 μM ATP and 37.5 mM magnesium chloride, 0.1 μg/well of Raf kinase, and 1 μg/well of MEK-1 substrate protein. Assay samples were incubated for 30 min at room temperature. The kinase reaction was stopped by adding EDTA, pH8 to a final concentration of 25 mM. A 10 μl of the reaction sample was spotted onto nitrocellulose filter and dot blot was performed by adding 1 μg/ml of anti-phospho-MEK-1 antibody in the blocking solution (Licor Bioscience, catalogue #927-40000). The nitrocellulose filter was subsequently incubated with secondary IRDye 800CW goat anti-rabbit antibody (Licor Bioscience, catalogue #926-32211) before reading the signal on an Odyssey imager (Licor Bioscience).

[3] = tested on: Breast_SkBr3 (SKBr3, breast carcinoma); assay: Cell proliferation assay (ATPlite), SkBr3; format: cell-based; details: Homo sapiens, SK-BR-3; TABLE D; Breast carcinoma; read-out: IC50 grading, SKBr3
Protocol: as §1, §2
as §3, with “The cells were incubated with compounds for 72 hours in the presence of 0.5% of fetal bovine serum.” left out

[4] = tested on: Colon_HCT116 (HCT116, colon cancer); assay: Cell proliferation assay (ATPlite), HCT116; format: cell-based; details: Homo sapiens, HCT-116; TABLE D; Colon cancer; read-out: IC50 grading, HCT116
Protocol: as §1, §2
as §3, with “The cells were incubated with compounds for 72 hours in the presence of 0.5% of fetal bovine serum.” left out

[5] = tested on: Breast_MDAMB468 (MDA-MB-468, breast adenocarcinoma); assay: Cell proliferation assay (ATPlite), MDA-MB-468; format: cell-based; details: Homo sapiens, TABLE D, Breast adenocarcinoma, read-out: IC50 grading, MDA-MB-468
Protocol: as §1, §2
as §3, with “The cells were incubated with compounds for 72 hours in the presence of 0.5% of fetal bovine serum.” left out

[6] = tested on: MDA-MB-231 (breast adenocarcinoma); assay: Cell proliferation assay (ATPlite), MDA-MB-231; format: cell-based; details: Homo sapiens, TABLE D, read-out: IC50 grading, MDA-MB-231
Protocol: as §1, §2
as §3, with “The cells were incubated with compounds for 72 hours in the presence of 0.5% of fetal bovine serum.” left out

[7] = tested on: Epidermoid_A431 (A431, epidermoid carcinoma); assay: Cell proliferation assay (ATPlite), A431; format: cell-based; details: Homo sapiens, A-431; TABLE D; Epidermoid carcinoma; read-out: IC50 grading, A431
Protocol: as §1, §2
as §3, with “The cells were incubated with compounds for 72 hours in the presence of 0.5% of fetal bovine serum.” left out

A549 NSCLC xenograft = assay: A549 NSCLC Xenograft Model; format: in vivo; details: FIG. 11A, 11B
Caki-1 (renal carcinoma) = assay: Cell proliferation assay (ATPlite), Caki-1; format: cell-based; details: Homo sapiens, TABLE D, read-out: IC50 grading, Caki-1
Protocol: as §1, §2
as §3, with “The cells were incubated with compounds for 72 hours in the presence of 0.5% of fetal bovine serum.” left out

[8] = tested on: Prostate_22RV1 (22RV1, prostate carcinoma); assay: Cell proliferation assay (ATPlite), 22RV1; format: cell-based; details: Homo sapiens, TABLE D, Prostate carcinoma, read-out: IC50 grading, 22RV1
Protocol: as §1, §2
as §3, with “The cells were incubated with compounds for 72 hours in the presence of 0.5% of fetal bovine serum.” left out

[9] = tested on: HCT-116 (colon) and SKBr3 (breast) cancer cells; assay: Induction of apoptosis, Caspase 3&7 activity (FIG. 4); format: cell-based; details: concentration <20 μM
[10] = tested on: Breast_MCF7 (MCF-7, breast adenocarcinoma); assay: Cell proliferation assay (ATPlite), MCF7; format: cell-based; details: Homo sapiens, TABLE D, Breast adenocarcinoma, read-out: IC50 grading, MCF-7
Protocol: as §1, §2
as §3, with “The cells were incubated with compounds for 72 hours in the presence of 0.5% of fetal bovine serum.” left out

Lung_HCC827 = assay: Cell proliferation assay (ATPlite), HCC827; format: cell-based; details: Homo sapiens, TABLE C, 72 hours, 0.5% fetal bovine serum, ATP content, read-out: IC50 grading, Lung_HCC827
Protocol: as §1, §2, §3

| IC50 (Lung_H1703) | IC50 (Lung_H358) | IC50 (Lung_H460) | IC50 (Pancreas_BxPC3) | IC50 (Lung_H1975) | IC50 (Lung_H2122) | Structure (SMILES) | IC50 (Pancreas_Capan1) | IC50 (C-Raf) | further results |
| --- | --- | --- | --- | --- | --- | --- | --- | --- | --- |
| 0.1 to 1 µM | 0.1 to 1 µM | 0.1 to 1 µM | 0.1 to 1 µM | 0.1 to 1 µM | 0.1 to 1 µM | COc1cc2ncnc(Nc3ccc(F)c(Cl)c3)c2cc1OCCCCCCC(=O)NO [Compound 6] | 1 to 10 µM |  | IC50 ([1]; TABLE C, 72 hours, 0.5% fetal bovine serum, ATP content, read-out: IC50 grading, Prostate_PC3): 0.1 to 1 µM |
|  |  |  |  |  |  | CC(/C=C/C(=O)NO)=C\[C@@H](C)C(=O)c1ccc(N(C)C)cc1 [TSA, trichostatin A] |  |  | fold increase in ER mRNA expression [2]: 5 fold |
|  |  |  |  |  |  | O=C(CCCCCNC(=O)c1cc(Oc2ccc(NC(=O)Nc3ccc(Cl)c(C(F)(F)F)c3)cc2)ccn1)NO [Compound 5] |  | 1 to 10 µM |  |
|  |  |  |  |  |  | C#Cc1cccc(Nc2ncnc3cc(OCCOC)c(OCCOC)cc23)c1 [Erlotinib, reference compound] |  |  | IC50 [3]: ≥ 5 µM; IC50 ([1]; TABLE D, Prostate adenocarcinoma, read-out: IC50 grading, PC-3): ≥ 5 µM; IC50 [4]: ≥ 5 µM; IC50 [5]: 0.5 to 5 µM; IC50 [6]: ≥ 5 µM; IC50 [7]: 0.5 to 5 µM; effect on tumor growth / tumor size (A549 NSCLC xenograft): did not significantly affect tumor size; IC50 (Caki-1 (renal carcinoma)): 0.05 to 0.5 µM; IC50 [8]: 0.05 to 0.5 µM; induction of apoptosis (Caspase 3&7 activity) [9]: inactive; IC50 [10]: ≥ 5 µM |
| 1 to 10 µM | 1 to 10 µM | 1 to 10 µM | 1 to 10 µM | 1 to 10 µM | 1 to 10 µM | C#Cc1cccc(Nc2ncnc3cc(OC)c(NC(=O)CCCCCCC(=O)NO)cc23)c1 [Compound 44] | 1 to 10 µM |  | IC50 (Lung_HCC827): 0.1 to 1 µM |
|  |  |  |  |  |  | O=C(CCCCCCC(=O)Nc1cc(Oc2ccc(NC(=O)Nc3ccc(Cl)c(C(F)(F)F)c3)cc2)ccn1)NO [Compound 12] |  | < 0.1 µM |  |
